≈ marks a conversion by molar mass, not a printed value.

Holding throughout (format): functional
In assay [1] the test system is Mycobacterium tuberculosis. In words: In vitro minimum inhibitory concentration value against isoniazid resistant Mycobacterium tuberculosis in alamar assay.
Assay [2] relates to Mycobacterium tuberculosis. The assay is described as follows: In vitro minimum inhibitory concentration value against ethambutol resistant Mycobacterium tuberculosis in alamar assay.
In assay [3] the test system is Mycobacterium tuberculosis. The assay is described as follows: In vitro minimum inhibitory concentration value against ciprofloxacin resistant Mycobacterium tuberculosis in alamar assay.
The subject of assay [4] is Mycobacterium tuberculosis. In words: Ratio of the MIC value of the Mycobacterium tuberculosis ethambutol resistant strain to H37Rv strain was determined.
For assay [5], the system named is Mycobacterium tuberculosis. The assay is described as follows: Ratio of the MIC value of the Mycobacterium tuberculosis rifampin resistant strain to H37Rv strain was determined.
Assay [6] concerns Mycobacterium tuberculosis. The assay is described as follows: Ratio of the MIC value of the Mycobacterium tuberculosis ethionamide resistant strain to H37Rv strain was determined.
The subject of assay [7] is Mycobacterium tuberculosis. In words: In vitro minimum inhibitory concentration value against ethionamide resistant Mycobacterium tuberculosis in alamar assay.
Assay [8] has as its system Mycobacterium tuberculosis. In words: Ratio of the MIC value of the Mycobacterium tuberculosis ciprofloxacin resistant strain to H37Rv strain was determined.
Assay [9] has as its system Mycobacterium tuberculosis. The assay is described as follows: In vitro minimum inhibitory concentration value against rifampin resistant Mycobacterium tuberculosis in alamar assay.
Assay [10] deals with Mycobacterium tuberculosis. The assay is described as follows: In vitro minimum inhibitory concentration value against kanamycin resistant Mycobacterium tuberculosis in alamar assay.
The subject of assay [11] is Mycobacterium tuberculosis. The assay is described as follows: Ratio of the MIC value of the Mycobacterium tuberculosis isoniazid resistant strain to H37Rv strain was determined.
Assay [12] relates to Mycobacterium tuberculosis. In words: In vitro minimum inhibitory concentration value against thiacetazone resistant Mycobacterium tuberculosis in alamar assay.
For assay [13], the system named is Mycobacterium tuberculosis. In words: Ratio of the MIC value of the Mycobacterium tuberculosis kanamycin resistant strain to H37Rv strain was determined.
The test system of assay [14] is Mycobacterium tuberculosis. The assay is described as follows: Ratio of the MIC value of the Mycobacterium tuberculosis thiacetazone resistant strain to H37Rv strain was determined.

The MIC is the lowest concentration found to suppress growth. High values mean weaker potency, low ones greater potency. In the case of `CCc1c(C(=O)OC)[n+]([O-])c2cc(C)c(C)cc2[n+]1[O-]`, the minimal inhibitory concentration (MIC) in assay [1] is 1.56 µg/mL (≈ 5.65 µM); in [2], 0.78 µg/mL (≈ 2.82 µM); in [3], 0.39 µg/mL (≈ 1.41 µM); in assay [7], 0.78 µg/mL (≈ 2.82 µM); in assay [9] it was 0.39 µg/mL (≈ 1.41 µM); in assay [10], 0.39 µg/mL (≈ 1.41 µM). Further, the lowest concentration to inhibit growth in assay [12] (MIC) was 0.78 µg/mL (≈ 2.82 µM). For the same molecule, the Ratio worked out at 2 µg/mL in [4]; 1 µg/mL in assay [5]; 2 µg/mL in assay [6]; 1 µg/mL in assay [8]; 4 µg/mL in assay [11]; 1 µg/mL in assay [13]. Besides, the Ratio in [14] was 2 µg/mL.

In the case of `COC(=O)c1c(Cc2ccccc2)[n+]([O-])c2cc(Cl)c(Cl)cc2[n+]1[O-]`, the MIC is 6.25 µg/mL (≈ 16.5 µM) in [1]; ≤ 3.13 µg/mL in assay [2]; 12.5 µg/mL (≈ 33 µM) in assay [3]; 6.25 µg/mL (≈ 16.5 µM) in [7]; ≤ 3.13 µg/mL in [9]; ≤ 3.13 µg/mL in [10]. In assay [12], the minimum inhibitory concentration (MIC) was ≤ 3.13 µg/mL. For the same molecule, the Ratio in assay [4] was 1 µg/mL; in [5], 1 µg/mL; in assay [6] it was “>=2 ug ml-1”; in [8], “>=3.99 ug ml-1”; in [11] it was “>=2 ug ml-1”; in assay [13], 1 µg/mL. Also, the Ratio in assay [14] is 1 µg/mL.

Values taken from ChEMBL document CHEMBL1144409, “Synthesis of new quinoxaline-2-carboxylate 1,4-dioxide derivatives as anti-Mycobacterium tuberculosis agents” (J Med Chem, 2005).
